Values quoted from earlier work as cited in patent publication US7993907B2, “Biochips and method of screening using drug induced gene and protein expression profiling” (Mowycal Lending, LLC, priority 2001, dated 2011).
Where two headings read alike, the source gives them in different places. Where no end group is shown, it is not given here. The star is where a group is joined. For = O=C*

Assays:
[1] = Indication Congestive Heart Failure
[2] = Indication Acute Respiratory Disease
[3] = examples of hazardous chemicals
[4] = test system: human peripheral blood cells; settings: cells stimulated by pro-inflammatory agents or molecules
[5] = Indication Osteoporosis
[6] = Indication Breast Cancer
[7] = Indication Alzheimer's Disease

## ENBREL
[1]
  Termination (reason drug was discontinued or terminated in FDA trials): Lack of efficacy

## C[C@@H](O)CCCCn1c(=O)c2c(ncn2C)n(C)c1=O [Lisofylline]
[2]
  Termination (reason drug was discontinued or terminated in FDA trials): Safety Board

## CC[n+]1c(-c2ccccc2)c2cc(N)ccc2c2ccc(N)cc21 [Ethidium Bromide (EtBr), Ethidium Bromide]
[3]
  Hazard: Mutagen

## f-Met-Leu-Phe-Phe (For-MLFF) [HK-X]
G protein γ kinase
  Mechanism of action on G protein γ kinase: inhibition of G protein γ kinase
[4]
  Effect on pro-inflammatory responses of human peripheral blood cells: inactivate certain pro-inflammatory responses

## CC/C(=C(\c1ccc(I)cc1)c1ccc(OCCN2CCCC2)cc1)c1ccccc1 [Idoxifene]
[5]
  Termination (reason drug was discontinued or terminated in FDA trials): Lack of efficacy
[6]
  Termination (reason drug was discontinued or terminated in FDA trials): Lack of efficacy

## C[C@]12CC[C@H](O)CC1=CC[C@@H]1[C@@H]2CC[C@]2(C)C(=O)CC[C@@H]12 [DHEA]
[7]
  Termination (reason drug was discontinued or terminated in FDA trials): Results were equal
